pIC50: −log10 of the molar value. Like-named read-outs stand apart in the source and are kept apart here.
Assays:
Type in all cases: biochemical
human Src enzyme = biological target: T1, human Src enzyme (Homo sapiens, UniProt P12931); test: Src enzyme inhibitory activity (time-resolved fluorometry, biotinylated peptide phosphorylation); conditions: read-out: SRC_IC50
T1 construct: purchased Carna Biosciences, Inc. 08-173
In short: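 Compounds were tested for blocking tyrosine phosphorylation of a biotinylated peptide substrate by recombinant human Src. Phosphorylated product was quantified by time-resolved fluorometry using europium cryptate and XL665 conjugates, and IC50 was calculated against the compound-free control.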

human Yes1 enzyme = biological target: T2, human Yes1 enzyme (Homo sapiens, UniProt P07947); test: Yes1 enzyme inhibitory activity (time-resolved fluorometry, biotinylated peptide phosphorylation); conditions: read-out: YES_IC50
T2 construct: made in house
T2 sequence (P07947 whole entry): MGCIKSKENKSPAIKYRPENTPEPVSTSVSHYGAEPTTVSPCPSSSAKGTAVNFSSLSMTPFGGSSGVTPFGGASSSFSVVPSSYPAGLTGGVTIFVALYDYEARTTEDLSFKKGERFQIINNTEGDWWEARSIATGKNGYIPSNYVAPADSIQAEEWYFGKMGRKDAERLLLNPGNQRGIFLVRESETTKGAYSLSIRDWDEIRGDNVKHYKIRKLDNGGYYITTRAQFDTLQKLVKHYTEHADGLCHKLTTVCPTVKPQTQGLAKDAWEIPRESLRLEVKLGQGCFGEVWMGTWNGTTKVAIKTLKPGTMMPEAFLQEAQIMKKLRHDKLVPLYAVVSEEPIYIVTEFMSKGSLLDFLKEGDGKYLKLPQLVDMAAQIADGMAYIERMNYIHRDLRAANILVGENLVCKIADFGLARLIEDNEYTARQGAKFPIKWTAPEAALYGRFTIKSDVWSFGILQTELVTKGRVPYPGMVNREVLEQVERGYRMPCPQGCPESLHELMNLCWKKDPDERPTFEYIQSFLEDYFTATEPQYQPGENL
In short: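 Inhibition was expressed against a compound-free control to give IC50, using TR-FRET read-out (Eu-cryptate anti-pTyr antibody, streptavidin-XL665).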

human Lck enzyme = biological target: T3, human Lck enzyme (Homo sapiens, UniProt P06239); test: Lck enzyme inhibitory activity (time-resolved fluorometry, biotinylated peptide phosphorylation); conditions: read-out: LCK_IC50
T3 construct: purchased Carna Biosciences, Inc. 08-170
T3 sequence (P06239 whole entry): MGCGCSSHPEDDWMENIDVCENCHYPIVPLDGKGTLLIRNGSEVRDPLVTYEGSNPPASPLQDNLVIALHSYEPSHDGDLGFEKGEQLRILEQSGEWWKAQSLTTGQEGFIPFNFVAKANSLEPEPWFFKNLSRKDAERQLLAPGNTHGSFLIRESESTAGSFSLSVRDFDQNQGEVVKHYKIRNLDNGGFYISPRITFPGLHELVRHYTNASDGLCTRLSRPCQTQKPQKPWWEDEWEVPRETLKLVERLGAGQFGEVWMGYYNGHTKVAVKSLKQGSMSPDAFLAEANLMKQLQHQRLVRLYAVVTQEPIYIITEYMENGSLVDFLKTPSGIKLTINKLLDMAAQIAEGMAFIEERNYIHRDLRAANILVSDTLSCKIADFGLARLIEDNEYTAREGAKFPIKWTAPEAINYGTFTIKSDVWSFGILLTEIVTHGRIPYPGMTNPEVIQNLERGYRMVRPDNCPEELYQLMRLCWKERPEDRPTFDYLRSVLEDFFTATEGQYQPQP
In short: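 Readout pairs a europium cryptate-labelled anti-phosphotyrosine antibody with XL665-streptavidin, measured by time-resolved fluorescence. IC50 derived from percent inhibition against untreated controls.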

[1] = biotinylated peptide phosphorylation

T1 sequence (P12931 whole entry): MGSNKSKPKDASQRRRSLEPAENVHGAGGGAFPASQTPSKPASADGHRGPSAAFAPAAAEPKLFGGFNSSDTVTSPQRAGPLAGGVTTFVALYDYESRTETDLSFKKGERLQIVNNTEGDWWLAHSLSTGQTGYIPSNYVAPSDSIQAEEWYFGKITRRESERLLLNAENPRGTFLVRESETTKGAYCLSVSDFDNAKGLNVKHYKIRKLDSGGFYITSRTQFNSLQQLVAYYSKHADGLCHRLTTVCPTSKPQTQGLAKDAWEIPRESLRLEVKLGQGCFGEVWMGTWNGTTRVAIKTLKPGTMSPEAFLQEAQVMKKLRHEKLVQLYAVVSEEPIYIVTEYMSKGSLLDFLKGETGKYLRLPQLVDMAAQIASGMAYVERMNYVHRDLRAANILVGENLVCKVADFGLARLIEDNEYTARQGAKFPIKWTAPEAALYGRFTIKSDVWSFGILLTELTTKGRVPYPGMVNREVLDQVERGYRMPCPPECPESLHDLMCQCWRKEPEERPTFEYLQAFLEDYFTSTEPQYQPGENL

| Structure (SMILES) | pIC50 (human Src enzyme; [1]) | pIC50 (human Yes1 enzyme; [1]) | pIC50 (human Lck enzyme; [1]) | pIC50 (human Src enzyme) | pIC50 (human Yes1 enzyme) | pIC50 (human Lck enzyme) |
| --- | --- | --- | --- | --- | --- | --- |
| Cc1cc(Oc2ccccc2F)ncc1-n1ncc(C(=O)c2cc3cc(OC(F)F)c(N4CCOCC4)cc3[nH]2)c1N [Example 4-25-022, [5-amino-1-[6-(2-fluorophenoxy)-4-methylpyridin-3-yl]pyrazol-4-yl]-[5-(difluoromethoxy)-6-morpholin-4-yl-1H-indol-2-yl]methanone] | 7.23 | 8.23 | 8.00 | – | – | – |
| Cc1cc(Oc2c(F)cccc2F)ncc1-n1ncc(C(=O)c2cc3cc(OC(F)F)c(N4CCOCC4)cc3[nH]2)c1N [Example 4-25-023, [5-amino-1-[6-(2,6-difluorophenoxy)-4-methylpyridin-3-yl]pyrazol-4-yl]-[5-(difluoromethoxy)-6-morpholin-4-yl-1H-indol-2-yl]methanone] | 7.07 | 8.20 | 7.80 | – | – | – |
| Cc1cc(Oc2ccccc2F)ccc1-n1ncc(C(=O)c2cc3cc(OC(F)F)c(N4CCOCC4)cc3[nH]2)c1N [Example 4-25-024, [5-amino-1-[4-(2-fluorophenoxy)-2-methylphenyl]pyrazol-4-yl]-[5-(difluoromethoxy)-6-morpholin-4-yl-1H-indol-2-yl]methanone] | 7.26 | 9.16 | 7.54 | – | – | – |
| Cc1cc(Oc2ccccc2F)cc(F)c1-n1ncc(C(=O)c2cc3cc(OC(F)F)c(N4CCOCC4)cc3[nH]2)c1N [Example 4-25-025, [5-amino-1-[2-fluoro-4-(2-fluorophenoxy)-6-methylphenyl]pyrazol-4-yl]-[5-(difluoromethoxy)-6-morpholin-4-yl-1H-indol-2-yl]methanone] | 7.10 | 7.77 | 7.51 | – | – | – |
| Cc1cc(Oc2ccccc2F)ncc1-n1ncc(C(=O)c2cc3cc(OCC(F)F)c(N4CCC(N5CCOCC5)CC4)cc3[nH]2)c1N [Example 4-25-026, {5-amino-1-[6-(2-fluorophenoxy)-4-methylpyridin-3-yl]pyrazol-4-yl}-[5-(2,2-difluoroethoxy)-6-(4-morpholin-4-ylpiperidin-1-yl)-1H-indol-2-yl]methanone] | 7.92 | 9.04 | 8.80 | – | – | – |
| Cc1cc(Oc2c(F)cccc2F)ncc1-n1ncc(C(=O)c2cc3cc(OCC(F)F)c(N4CCC(N5CCOCC5)CC4)cc3[nH]2)c1N [Example 4-25-027, [5-amino-1-[6-(2,6-difluorophenoxy)-4-methylpyridin-3-yl]pyrazol-4-yl]-[5-(2,2-difluoroethoxy)-6-(4-morpholin-4-ylpiperidin-1-yl)-1H-indol-2-yl]methanone] | 7.64 | 9.10 | 8.68 | – | – | – |
| Cc1cc(Oc2ccccc2F)ccc1-n1ncc(C(=O)c2cc3cc(OCC(F)F)c(N4CCC(N5CCOCC5)CC4)cc3[nH]2)c1N [Example 4-25-028, [5-amino-1-[4-(2-fluorophenoxy)-2-methylphenyl]pyrazol-4-yl]-[5-(2,2-difluoroethoxy)-6-(4-morpholin-4-ylpiperidin-1-yl)-1H-indol-2-yl]methanone] | 7.89 | 9.03 | 8.31 | – | – | – |
| Cc1cc(Oc2ccccc2F)cc(F)c1-n1ncc(C(=O)c2cc3cc(OCC(F)F)c(N4CCC(N5CCOCC5)CC4)cc3[nH]2)c1N [Example 4-25-029, [5-amino-1-[2-fluoro-4-(2-fluorophenoxy)-6-methylphenyl]pyrazol-4-yl]-[5-(2,2-difluoroethoxy)-6-(4-morpholin-4-ylpiperidin-1-yl)-1H-indol-2-yl]methanone] | 7.68 | 8.62 | 8.17 | – | – | – |
| Cc1cc(Oc2ccccc2F)ncc1-n1ncc(C(=O)c2cc3cc(OC(F)F)c(N4CCC(N5CCOCC5)CC4)cc3[nH]2)c1N [Example 4-25-030, [5-amino-1-[6-(2-fluorophenoxy)-4-methylpyridin-3-yl]pyrazol-4-yl]-[5-(difluoromethoxy)-6-(4-morpholin-4-ylpiperidin-1-yl)-1H-indol-2-yl]methanone] | 7.42 | 8.59 | 8.04 | – | – | – |
| Cc1cc(Oc2c(F)cccc2F)ncc1-n1ncc(C(=O)c2cc3cc(OC(F)F)c(N4CCC(N5CCOCC5)CC4)cc3[nH]2)c1N [Example 4-25-031, [5-amino-1-[6-(2,6-difluorophenoxy)-4-methylpyridin-3-yl]pyrazol-4-yl]-[5-(difluoromethoxy)-6-(4-morpholin-4-ylpiperidin-1-yl)-1H-indol-2-yl]methanone] | 7.32 | 8.72 | 8.14 | – | – | – |
| Cc1cc(Oc2ccccc2F)ccc1-n1ncc(C(=O)c2cc3cc(OC(F)F)c(N4CCC(N5CCOCC5)CC4)cc3[nH]2)c1N [Example 4-25-032, [5-amino-1-[4-(2-fluorophenoxy)-2-methylphenyl]pyrazol-4-yl]-[5-(difluoromethoxy)-6-(4-morpholin-4-ylpiperidin-1-yl)-1H-indol-2-yl]methanone] | 7.32 | 9.08 | 7.96 | – | – | – |
| Cc1cc(Oc2ccccc2F)ccc1-n1ncc(C(=O)c2cc3cc(F)c(NS(=O)(=O)CC(=O)N4CCCC4)cc3[nH]2)c1N [Example 4-26-001, N-(2-(5-amino-1-(4-(2-fluorophenoxy)-2-methylphenyl)-1H-pyrazole-4-carbonyl)-5-fluoro-1H-indol-6-yl)-2-oxo-2-(pyrrolidin-1-yl)ethanesulfonamide] | 7.59 | 8.82 | 8.12 | – | – | – |
| CC(C)N1CCC(c2cc3cc(C(=O)c4cnn(-c5ccc(Oc6ccccc6Cl)cc5)c4N)[nH]c3cc2F)CC1 [Example 5-1-001, [5-amino-1-[4-(2-chlorophenoxy)phenyl]pyrazol-4-yl]-[6-fluoro-5-(1-propan-2-ylpiperidin-4-yl)-1H-indol-2-yl]methanone] | – | – | – | 8.12 | 8.96 | 8.54 |
| CC(C)N1CCC(c2cc3cc(C(=O)c4cnn(-c5ccc(Oc6cccc(F)c6)cc5F)c4N)[nH]c3cc2F)CC1 [Example 5-1-002, [5-amino-1-[2-fluoro-4-(3-fluorophenoxy)phenyl]pyrazol-4-yl]-[6-fluoro-5-(1-propan-2-ylpiperidin-4-yl)-1H-indol-2-yl]methanone] | – | – | – | 8.21 | 9.06 | 8.66 |
| CC(C)N1CCC(c2cc3cc(C(=O)c4cnn(-c5ccc(Oc6cccc(Cl)c6)cc5F)c4N)[nH]c3cc2F)CC1 [Example 5-1-003, [5-amino-1-[4-(3-chlorophenoxy)-2-fluorophenyl]pyrazol-4-yl]-[6-fluoro-5-(1-propan-2-ylpiperidin-4-yl)-1H-indol-2-yl]methanone] | – | – | – | 7.59 | 8.70 | 8.33 |
| CC(C)N1CCC(c2cc3cc(C(=O)c4cnn(-c5ccc(Oc6ccccc6F)cc5)c4N)[nH]c3cc2F)CC1 [Example 5-1-004, [5-amino-1-[4-(2-fluorophenoxy)phenyl]pyrazol-4-yl]-[6-fluoro-5-(1-propan-2-ylpiperidin-4-yl)-1H-indol-2-yl]methanone] | – | – | – | 8.44 | 9.11 | 8.55 |
| Cc1cc(Oc2cccc(F)c2)ccc1-n1ncc(C(=O)c2cc3cc(C4CCN(C(C)C)CC4)c(F)cc3[nH]2)c1N [Example 5-1-005, [5-amino-1-[4-(3-fluorophenoxy)-2-methylphenyl]pyrazol-4-yl]-[6-fluoro-5-(1-propan-2-ylpiperidin-4-yl)-1H-indol-2-yl] methanone] | – | – | – | 7.43 | 9.15 | 8.38 |
| CC(C)N1CCC(c2cc3[nH]c(C(=O)c4cnn(-c5ccc(Oc6cccc(F)c6)cc5F)c4N)cc3cc2F)CC1 [Example 5-1-006, [5-amino-1-[2-fluoro-4-(3-fluorophenoxy)phenyl]pyrazol-4-yl]-[5-fluoro-6-(1-propan-2-ylpiperidin-4-yl)-1H-indol-2-yl]methanone] | – | – | – | 7.25 | 9.14 | 8.22 |
| CC(C)N1CCC(c2cc3[nH]c(C(=O)c4cnn(-c5ccc(Oc6ccccc6F)cc5)c4N)cc3cc2F)CC1 [Example 5-1-007, [5-amino-1-[4-(2-fluorophenoxy)phenyl]pyrazol-4-yl]-[5-fluoro-6-(1-propan-2-ylpiperidin-4-yl)-1H-indol-2-yl]methanone] | – | – | – | 7.96 | 8.96 | 8.66 |
| CC(C)N1CCC(c2cc3[nH]c(C(=O)c4cnn(-c5ccc(Oc6cccc(Cl)c6)cc5)c4N)cc3cc2F)CC1 [Example 5-1-008, [5-amino-1-[4-(3-chlorophenoxy)phenyl]pyrazol-4-yl]-[5-fluoro-6-(1-propan-2-ylpiperidin-4-yl)-1H-indol-2-yl]methanone] | – | – | – | 7.22 | 8.57 | 8.34 |
| Cc1cc(Oc2cccc(F)c2)ccc1-n1ncc(C(=O)c2cc3cc(F)c(C4CCN(C(C)C)CC4)cc3[nH]2)c1N [Example 5-1-009, [5-amino-1-[4-(3-fluorophenoxy)-2-methylphenyl]pyrazol-4-yl]-[5-fluoro-6-(1-propan-2-ylpiperidin-4-yl)-1H-indol-2-yl] methanone] | – | – | – | 8.03 | 8.72 | 8.55 |
| CC(C)N1CCC(c2cc3[nH]c(C(=O)c4cnn(-c5ccc(Oc6cccc(Cl)c6)cc5F)c4N)cc3cc2F)CC1 [Example 5-1-010, [5-amino-1-[4-(3-chlorophenoxy)-2-fluorophenyl]pyrazol-4-yl]-[5-fluoro-6-(1-propan-2-ylpiperidin-4-yl)-1H-indol-2-yl]methanone] | – | – | – | 7.42 | 8.60 | 8.44 |

— patent US10479780B2, “Aminopyrazole derivatives” (Chugai Seiyaku Kabushiki Kaisha, priority 2015, dated 2019)
